1 compound from ChEMBL document CHEMBL1129806, “Diastereoselective synthesis of trans-2-(1-triphenylmethyl-1H-imidazol-4-yl)cyclopropanecarboxylic acids: key intermediates for the preparation of potent and chiral histamine H3 receptor agents” (Bioorg Med Chem Lett, 1997) can be followed below.

The assay addresses Histamine H3 receptor (Rattus norvegicus, UniProt Q9QYN8). Nature of the assay: Histamine H3 receptor affinity of compound was determined in rat cortical membranes using the H3 selective agonist ligand, [3H]N-alpha-methylhistamine. It counts as cell membranes, Membrane.

Chain of Histamine H3 receptor (Q9QYN8 whole entry): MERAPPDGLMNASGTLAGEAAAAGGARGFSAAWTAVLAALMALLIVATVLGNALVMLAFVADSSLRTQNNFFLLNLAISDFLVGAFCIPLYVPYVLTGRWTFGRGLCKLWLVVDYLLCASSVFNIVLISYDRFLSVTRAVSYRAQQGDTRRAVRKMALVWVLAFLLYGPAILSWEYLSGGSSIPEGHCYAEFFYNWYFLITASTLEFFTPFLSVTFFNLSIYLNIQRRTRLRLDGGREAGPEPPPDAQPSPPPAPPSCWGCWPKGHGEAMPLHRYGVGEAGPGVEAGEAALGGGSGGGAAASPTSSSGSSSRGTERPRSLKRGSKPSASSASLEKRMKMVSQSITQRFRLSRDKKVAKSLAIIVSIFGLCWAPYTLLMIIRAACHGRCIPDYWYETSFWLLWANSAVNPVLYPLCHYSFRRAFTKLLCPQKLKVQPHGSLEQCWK

What is called Ki is a measure of affinity in units of concentration, obtained from inhibition or displacement. In the case of `Ic1ccc(COCCCc2c[nH]cn2)cc1` [IODOPROXYFAN], the Ki came to 0.3 nM.
